Test results from US9914706B2, “N-substituted pyrazolyl guanidine F1F0-ATPase inhibitors and therapeutic uses thereof” (Lycera Corporation, priority 2013, dated 2018).
pEC50: −log10 of the molar value. Where two headings read alike, the source gives them in different places.

Tested on: Ramos cells
Assay: Cytotoxicity in Ramos cells
Format: cell-based
Conditions: read-out: Ramos Cell EC50
Experimental: Exemplary compounds described in above Examples were tested for activity against F1F0-ATPase by measuring the ability of the compounds to inhibit ATP synthesis. In addition, the compounds were assessed for cytotoxicity in Ramos cells. Inhibition of F1F0-ATPase activity in synthesizing ATP and cytotoxicity in Ramos cells were measured according to the procedures described in K. M. Johnson et al. Chemistry & Biology 2005, 12, 485-496.

Row | SMILES | pEC50 (Homo sapiens) | pEC50
1 | O=C(/N=C(/Nc1cc(F)cc(Cl)c1)Nc1cc(C(F)(F)F)nn1CC(O)CO)c1cccc(Cl)c1 (single isomer, unassigned) [Compound A-10] | > 5.00 | 
2 | O=C(/N=C(/Nc1cc(F)cc(Cl)c1)Nc1cc(C(F)(F)F)nn1CC(O)CO)c1cccc(Cl)c1 (single isomer, unassigned) [Compound A-11] |  | > 5.00
3 | O=C(/N=C(/Nc1cc(F)cc(Cl)c1)Nc1cc(C(F)(F)F)nn1CCO)c1ccc(C(F)(F)F)cc1 [Compound A-1] | > 5.00 | 
4 | N#CCCn1nc(C(F)(F)F)cc1N/C(=N\C(=O)c1ccc(C(F)(F)F)cc1)Nc1cc(F)cc(Cl)c1 [Compound A-2] | > 5.00 | 
5 | CC(O)Cn1nc(C(F)(F)F)cc1N/C(=N\C(=O)c1ccc(C(F)(F)F)cc1)Nc1cc(F)cc(Cl)c1 (stereo not shown) [Compound A-3] | > 5.00 | 
6 | CCOC(=O)Cn1nc(C(F)(F)F)cc1N/C(=N\C(=O)c1ccc(C(F)(F)F)cc1)Nc1cc(F)cc(Cl)c1 [Compound A-4] | > 5.00 | 
7 | O=C(O)Cn1nc(C(F)(F)F)cc1N/C(=N\C(=O)c1ccc(C(F)(F)F)cc1)Nc1cc(F)cc(Cl)c1 [Compound A-5] | > 5.00 | 
8 | NC(=O)Cn1nc(C(F)(F)F)cc1N/C(=N\C(=O)c1ccc(C(F)(F)F)cc1)Nc1cc(F)cc(Cl)c1 [Compound A-6] | > 5.00 | 
9 | Cc1c(C(F)(F)F)nn(CCO)c1N/C(=N\C(=O)c1ccc(C(F)(F)F)cc1)Nc1cc(F)cc(Cl)c1 [Compound A-7] | > 5.00 | 
10 | COc1ccc(C(=O)/N=C(/Nc2cccc(Cl)c2)Nc2cc(C(F)(F)F)nn2CCO)cc1 [Compound A-8] | > 5.00 | 
11 | COc1ccc(C(=O)/N=C(/Nc2cccc(C(F)(F)F)c2)Nc2cc(C(F)(F)F)nn2CCO)cc1 [Compound A-9] | > 5.00 | 
12 | C=CCn1nc(C(F)(F)F)cc1N/C(=N\C(=O)c1cccc(Cl)c1)Nc1cc(F)cc(Cl)c1 [Compound A-12] | > 5.00 | 
13 | O=C(/N=C(/Nc1cc(F)cc(Cl)c1)Nc1cc(C(F)(F)F)nn1-c1ccccc1)c1ccc(Cl)cc1 [Compound A-13] | > 5.00 | 
14 | O=C(/N=C(/Nc1cccc(Cl)c1)Nc1cc(C(F)(F)F)nn1-c1ccccc1)c1ccc(Cl)cc1 [Compound A-14] | > 5.00 | 
15 | O=C(/N=C(/Nc1cccc(C(F)(F)F)c1)Nc1cc(C(F)(F)F)nn1-c1ccccc1)c1ccc(Cl)cc1 [Compound A-15] | > 5.00 | 
16 | O=C(/N=C(/Nc1cc(F)cc(Cl)c1)Nc1cc(C(F)(F)F)nn1-c1ccc(F)cc1)c1ccc(Cl)cc1 [Compound A-16] | > 5.00 | 
17 | O=C(/N=C(/Nc1cccc(Cl)c1)Nc1cc(C(F)(F)F)nn1-c1ccc(F)cc1)c1ccc(Cl)cc1 [Compound A-17] | > 5.00 | 
18 | O=C(/N=C(/Nc1cccc(C(F)(F)F)c1)Nc1cc(C(F)(F)F)nn1-c1ccc(F)cc1)c1ccc(Cl)cc1 [Compound A-18] | > 5.00 | 
19 | O=C(/N=C(/Nc1cc(F)cc(Cl)c1)Nc1cc(C(F)(F)F)nn1-c1ccc(F)cc1)c1cccc(Cl)c1 [Compound A-19] | > 5.00 | 
20 | O=C(/N=C(/Nc1cc(F)cc(Cl)c1)Nc1cc(C(F)(F)F)nn1-c1cccc(Cl)c1)c1cccc(Cl)c1 [Compound A-20] | > 5.00 | 

Row | SMILES | pEC50 (Homo sapiens) | pEC50
21 | O=C(/N=C(/Nc1cc(F)cc(Cl)c1)Nc1cc(C(F)(F)F)nn1-c1cccc(Cl)c1)c1ccc(C(F)(F)F)cc1 [Compound A-21] | > 5.00 | 
22 | O=C(/N=C(/Nc1cccc(Cl)c1F)Nc1cc(C(F)(F)F)nn1-c1cccc(Cl)c1)c1ccc(F)c(F)c1 [Compound A-22] | > 5.00 | 
23 | Cc1c(C(F)(F)F)nn(-c2ccc(F)cc2)c1N/C(=N\C(=O)c1cccc(Cl)c1)Nc1cc(F)cc(Cl)c1 [Compound A-23] | > 5.00 | 
24 | Cc1c(C(F)(F)F)nn(-c2ccc(F)cc2)c1N/C(=N\C(=O)c1ccc(C(F)(F)F)cc1)Nc1cc(F)cc(Cl)c1 [Compound A-24] | > 5.00 | 
25 | Cc1c(C(F)(F)F)nn(-c2ccc(F)cc2)c1N/C(=N\C(=O)c1ccc(F)c(F)c1)Nc1cccc(Cl)c1F [Compound A-25] | > 5.00 | 
26 | O=C(/N=C(/Nc1cc(F)cc(Cl)c1)Nc1cc(C(F)(F)F)nn1C1CCCC1)c1cccc(Cl)c1 [Compound A-26] | > 5.00 | 
27 | O=C(/N=C(/Nc1cc(F)cc(Cl)c1)Nc1cc(C(F)(F)F)nn1C1CCCCC1)c1cccc(Cl)c1 [Compound A-27] | > 5.00 | 
28 | O=C(/N=C(/Nc1cc(F)cc(Cl)c1)Nc1cc(C(F)(F)F)nn1C1CCCCC1)c1ccc(F)c(F)c1 [Compound A-28] | > 5.00 | 
29 | O=C(/N=C(/Nc1cc(F)cc(Cl)c1)Nc1ccnn1-c1ccccc1)c1cccc(Cl)c1 [Compound A-29] | > 5.00 | 
30 | O=C(/N=C(/Nc1cc(F)cc(Cl)c1)Nc1ccnn1-c1ccccc1)c1ccc(F)c(F)c1 [Compound A-30] | > 5.00 | 
31 | COc1cc(OC)cc(-n2nc(C(F)(F)F)cc2N/C(=N\C(=O)c2ccc(F)c(F)c2)Nc2cc(F)cc(Cl)c2)c1 [Compound A-31] | > 5.00 | 
32 | O=C(/N=C(/Nc1cc(F)cc(Cl)c1)Nc1cc(C(F)(F)F)nn1-c1cccnc1)c1cccc(Cl)c1 [Compound A-32] | > 5.00 | 
33 | O=C(/N=C(/Nc1cc(F)cc(Cl)c1)Nc1cc(C(F)(F)F)nn1C1CCCC1)c1ccc(F)c(F)c1 [Compound A-33] | > 5.00 | 
34 | COc1cc(O)cc(-n2nc(C(F)(F)F)cc2N/C(=N\C(=O)c2ccc(F)c(F)c2)Nc2cc(F)cc(Cl)c2)c1 [Compound A-34] | > 5.00 | 
35 | O=C(/N=C(/Nc1cc(F)cc(Cl)c1)Nc1cc(C(F)(F)F)nn1-c1cc(O)cc(O)c1)c1ccc(F)c(F)c1 [Compound A-35] | > 5.00 | 
36 | O=C(/N=C(/Nc1cc(F)cc(Cl)c1)Nc1cc(C(F)(F)F)nn1C1CCOCC1)c1cccc(Cl)c1 [Compound A-36] | > 5.00 | 
37 | CS(=O)(=O)N1CCC(n2nc(C(F)(F)F)cc2N/C(=N\C(=O)c2cccc(Cl)c2)Nc2cc(F)cc(Cl)c2)CC1 [Compound A-37] | > 5.00 | 
38 | COC(=O)N1CCC(n2nc(C(F)(F)F)cc2N/C(=N\C(=O)c2cccc(Cl)c2)Nc2cc(F)cc(Cl)c2)CC1 [Compound A-38] | > 5.00 | 
39 | O=C(/N=C(/Nc1cc(F)cc(Cl)c1)Nc1cc(C(F)(F)F)nn1C1CCCC1)c1cc(F)c(Cl)cc1Cl [Compound A-39] | > 5.00 | 
40 | O=C(/N=C(/Nc1cc(F)cc(Cl)c1)Nc1cc(C(F)(F)F)nn1C1CCCC1)c1cc(F)c(Cl)cc1F [Compound A-40] | > 5.00 | 

Row | SMILES | pEC50 (Homo sapiens) | pEC50
41 | Cc1cc(Cl)ccc1C(=O)/N=C(/Nc1cc(F)cc(Cl)c1)Nc1cc(C(F)(F)F)nn1C1CCCC1 [Compound A-41] | > 5.00 | 
42 | O=C(/N=C(/Nc1cc(F)cc(Cl)c1)Nc1cc(C(F)(F)F)nn1C1CCCC1)c1ccc(Cl)cc1F [Compound A-42] | > 5.00 | 
43 | Cc1c(Cl)cccc1C(=O)/N=C(/Nc1cc(F)cc(Cl)c1)Nc1cc(C(F)(F)F)nn1C1CCCC1 [Compound A-43] | > 5.00 | 
44 | O=C(/N=C(/Nc1cc(F)cc(Cl)c1)Nc1cc(C(F)(F)F)nn1C1CCCC1)c1cccc(Cl)c1F [Compound A-44] | > 5.00 | 
45 | O=C(/N=C(/Nc1cc(F)cc(Cl)c1)Nc1cc(C(F)(F)F)nn1C1CCCC1)c1ccc(Cl)c(F)c1 [Compound A-45] | > 5.00 | 
46 | O=C(/N=C(/Nc1cc(F)cc(Cl)c1)Nc1cc(C(F)(F)F)nn1C1CCCC1)c1ccc(Cl)cc1Cl [Compound A-46] | > 5.00 | 
47 | Cc1cc(F)ccc1C(=O)/N=C(/Nc1cc(F)cc(Cl)c1)Nc1cc(C(F)(F)F)nn1C1CCCC1 [Compound A-47] | > 5.00 | 
48 | O=C(/N=C(/Nc1cc(F)cc(Cl)c1)Nc1cc(C(F)(F)F)nn1C1CCCC1)c1c(F)cccc1F [Compound A-48] | > 5.00 | 
49 | COc1cccc(C(=O)/N=C(/Nc2cc(F)cc(Cl)c2)Nc2cc(C(F)(F)F)nn2C2CCCC2)c1 [Compound A-49] | > 5.00 | 
50 | O=C(/N=C(/Nc1cc(F)cc(Cl)c1)Nc1cc(C(F)(F)F)nn1C1CCCC1)c1cccc(F)c1 [Compound A-50] | > 5.00 | 
51 | N#Cc1ccc(C(=O)/N=C(/Nc2cc(F)cc(Cl)c2)Nc2cc(C(F)(F)F)nn2C2CCCC2)cc1 [Compound A-51] | > 5.00 | 
52 | N#Cc1ccc(C(=O)/N=C(/Nc2cccc(Cl)c2)Nc2cc(C(F)(F)F)nn2C2CCCC2)cc1 [Compound A-52] | > 5.00 | 
53 | O=C(/N=C(/Nc1cccc(Cl)c1)Nc1cc(C(F)(F)F)nn1C1CCCC1)c1ccc(Cl)cc1 [Compound A-53] | > 5.00 | 
54 | N#Cc1cccc(C(=O)/N=C(/Nc2cc(F)cc(Cl)c2)Nc2cc(C(F)(F)F)nn2C2CCCC2)c1 [Compound A-54] | > 5.00 | 
55 | N#Cc1cccc(C(=O)/N=C(/Nc2cccc(Cl)c2)Nc2cc(C(F)(F)F)nn2C2CCCC2)c1 [Compound A-55] | > 5.00 | 
56 | O=C(/N=C(/Nc1cc(F)cc(Cl)c1)Nc1cc(C(F)(F)F)nn1C1CCCC1)c1ccccc1Cl [Compound A-56] | > 5.00 | 
57 | O=C(/N=C(/Nc1cccc(Cl)c1)Nc1cc(C(F)(F)F)nn1C1CCCC1)c1ccccc1Cl [Compound A-57] | > 5.00 | 
58 | O=C(N=C(Nc1cc(F)cc(Cl)c1)Nc1cc(C(F)(F)F)nn1C1CCCC1)c1ccc(Cl)cc1 [Compound A-58, 4-chloro-N-(((3-chloro-5-fluorophenyl)amino)((1-cyclopentyl-3-(trifluoromethyl)-1H-pyrazol-5-yl)amino)methylene)benzamide] | > 5.00 | 
